What was measured:
Test in all cases: relative viability (nuclei count vs DMSO), 5 days (fraction); higher = more cells survive
Everolimus + Trametinib = compound: CO[C@H]1C[C@@H]2CC[C@@H](C)[C@@](O)(O2)C(=O)C(=O)N2CCCC[C@H]2C(=O)O[C@H]([C@H](C)C[C@@H]2CC[C@@H](OCCO)[C@H](OC)C2)CC(=O)[C@H](C)/C=C(\C)[C@@H](O)[C@@H](OC)C(=O)[C@H](C)C[C@H](C)/C=C/C=C/C=C/1C [Everolimus] + CC(=O)Nc1cccc(-n2c(=O)n(C3CC3)c(=O)c3c(Nc4ccc(I)cc4F)n(C)c(=O)c(C)c32)c1 [Trametinib] (partner 0.02 µM)
Summary of the method: (§1)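 Lung cancer cell lines in 1536-well plates were dosed by pin tool the day after seeding, either with one drug alone or with a fixed anchor-drug dose plus five library-drug doses (not always all listed) in √10 steps. After 5 days, cells were fixed and their nuclei stained in one step (final 0.05% Triton X-100, 1% formaldehyde, 1 ug/ml Hoechst), then counted on 4× images. Relative viability is the nuclei count in treated wells divided by that in vehicle wells. Values are medians of duplicate plates.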

Everolimus + Bortezomib = compound: CO[C@H]1C[C@@H]2CC[C@@H](C)[C@@](O)(O2)C(=O)C(=O)N2CCCC[C@H]2C(=O)O[C@H]([C@H](C)C[C@@H]2CC[C@@H](OCCO)[C@H](OC)C2)CC(=O)[C@H](C)/C=C(\C)[C@@H](O)[C@@H](OC)C(=O)[C@H](C)C[C@H](C)/C=C/C=C/C=C/1C [Everolimus] + CC(C)C[C@H](NC(=O)[C@H](Cc1ccccc1)NC(=O)c1cnccn1)B(O)O [Bortezomib] (partner 0.002 µM)
Summary of the method: as §1

Everolimus + Pictilisib = compound: CO[C@H]1C[C@@H]2CC[C@@H](C)[C@@](O)(O2)C(=O)C(=O)N2CCCC[C@H]2C(=O)O[C@H]([C@H](C)C[C@@H]2CC[C@@H](OCCO)[C@H](OC)C2)CC(=O)[C@H](C)/C=C(\C)[C@@H](O)[C@@H](OC)C(=O)[C@H](C)C[C@H](C)/C=C/C=C/C=C/1C [Everolimus] + CS(=O)(=O)N1CCN(Cc2cc3nc(-c4cccc5[nH]ncc45)nc(N4CCOCC4)c3s2)CC1 [Pictilisib] (partner 1 µM)
Summary of the method: as §1

Everolimus + Olaparib = compound: CO[C@H]1C[C@@H]2CC[C@@H](C)[C@@](O)(O2)C(=O)C(=O)N2CCCC[C@H]2C(=O)O[C@H]([C@H](C)C[C@@H]2CC[C@@H](OCCO)[C@H](OC)C2)CC(=O)[C@H](C)/C=C(\C)[C@@H](O)[C@@H](OC)C(=O)[C@H](C)C[C@H](C)/C=C/C=C/C=C/1C [Everolimus] + O=C(c1cc(Cc2n[nH]c(=O)c3ccccc23)ccc1F)N1CCN(C(=O)C2CC2)CC1 [Olaparib] (partner 8 µM)
Summary of the method: as §1

Cell Line	relative viability (Everolimus + Trametinib; first compound 0.01 µM)	relative viability (Everolimus + Trametinib; first compound 0.03162 µM)	relative viability (Everolimus + Trametinib; first compound 0.1 µM)	relative viability (Everolimus + Trametinib; first compound 0.3162 µM)	relative viability (Everolimus + Trametinib; first compound 1 µM)	relative viability (Everolimus + Bortezomib; first compound 0.01 µM)	relative viability (Everolimus + Bortezomib; first compound 0.03162 µM)	relative viability (Everolimus + Bortezomib; first compound 0.1 µM)	relative viability (Everolimus + Bortezomib; first compound 0.3162 µM)	relative viability (Everolimus + Bortezomib; first compound 1 µM)	relative viability (Everolimus + Pictilisib; first compound 0.01 µM)	relative viability (Everolimus + Pictilisib; first compound 0.03162 µM)	relative viability (Everolimus + Pictilisib; first compound 0.1 µM)	relative viability (Everolimus + Pictilisib; first compound 0.3162 µM)	relative viability (Everolimus + Pictilisib; first compound 1 µM)	relative viability (Everolimus + Olaparib; first compound 0.01 µM)	relative viability (Everolimus + Olaparib; first compound 0.03162 µM)	relative viability (Everolimus + Olaparib; first compound 0.1 µM)	relative viability (Everolimus + Olaparib; first compound 0.3162 µM)	relative viability (Everolimus + Olaparib; first compound 1 µM)
BEN	0.494	0.447	0.467	0.484	0.46	0.326	0.367	0.299	0.333	0.328	0.312	0.281	0.254	0.295	0.336	0.671	0.472	0.505	0.512	0.59
CAL-12T	0.193	0.187	0.172	0.191	0.191	0.662	0.732	0.557	0.597	0.713	0.324	0.26	0.377	0.287	0.304	0.527	0.486	0.483	0.473	0.379
COR-L23	0.37	0.337	0.316	0.375	0.294	0.788	0.963	0.635	0.683	0.864	0.354	0.409	0.378	0.366	0.483	0.321	0.346	0.334	0.282	0.352
COR-L 105	0.424	0.389	0.378	0.455	0.424	0.593	0.476	0.445	0.565	0.584	0.331	0.376	0.295	0.368	0.313	0.649	0.627	0.497	0.581	0.516
ChaGo-K-1	0.647	0.795	0.729	0.751	0.796	0.992	0.909	0.993	0.955	1.01	0.653	0.382	0.634	0.494	0.666	0.424	0.492	0.466	0.401	0.494
EKVX		0.294	0.257	0.268	0.382	0.636	0.721	0.631	0.558	0.6	0.251	0.24	0.234	0.245	0.22		0.493	0.494	0.561	0.558
EMC-BAC-2	0.502	0.605	0.536		0.503	0.731	0.69	0.645	0.588	0.616	0.368	0.349	0.298	0.42	0.39	0.455	0.43	0.385	0.383	0.347
EPLC-272H	0.199	0.227	0.179	0.205	0.204	0.573	0.589	0.517	0.638	0.558	0.274	0.295	0.188	0.211	0.262	0.552	0.484	0.428	0.429	0.483
